These results are taken from patent US11479561B2, “Tetrahydroisoquinoline derivatives” (Cytokinetics, Incorporated, priority 2016, dated 2022).

The test system of assay [1] is ankle plantarflexor muscle. Nature of the assay: Rat isometric ankle plantarflexor muscle force. To be noted: estimated, concentration at which muscle force is 50% of the pre-dose maximum tension, 30 Hz stimulation, continuous intravenous infusion over 60 min. Type of assay: in vivo, Sprague Dawley rats. From the text:
Female Sprague Dawley rats were placed under a stable anesthesic plane with inhaled isoflurane (1-5%). One incision was made on the mid-thigh region of the right leg to expose the sciatic nerve. To prevent co-contraction of the ankle dorsiflexors, an additional incision was made lateral to the patella to isolate and sever the peroneal nerve. Rats were then placed on a temperature-maintained in situ muscle analysis rig (Aurora Scientific, Model 806C). The knee was immobilized in a clamp between two sharpened screws and the foot was taped to a footplate attached to a force transducer (Aurora Scientific, Ontario, Canada). Stainless steel needle electrodes (0.10 mm) were hooked around the exposed sciatic nerve. Isometric ankle plantarflexor muscle contractile force was assessed with the ankle joint at 90° flexion. A 30 Hz electrical stimulation (under supramaximal voltage conditions) was applied to the nerve and the resulting muscle force was recorded via a servomotor. A pre-dose 30 Hz force response was established as the baseline force. A pre-dose 150 Hz force response was established as the maximum isometric force. Compounds were formulated in 50% polyethylene glycol (PEG): 16% Cavitron: 10% dimethylacetamide (DMA) and administered by continuous intravenous infusion over a sixty minute period. The muscle force response to compound was measured every two minutes over the dosing period. Data was reported as an estimated EC50 value, which is the concentration at which muscle force is 50% of the pre-dose maximum tension.

The subject of assay [2] is rabbit skeletal myofibrils (approximately 90% fast fibers). The assay is described as follows: Activation of fast skeletal myofibrils (PUMA coupled-enzyme ATPase assay). In kind it is biochemical. The following applies: concentration at which the compound increased the enzymatic activity by 40%; calcium level pCa25. How it is done: Preparation of fast skeletal myofibrils: Rabbit skeletal myofibrils were prepared based upon the method of Herrmann et al. (Biochem. 32(28):7255-7263(1993). Myofibrils were prepared from rabbit psoas muscle purchased from Pel-Freez Biologicals (Arkansas) within 2 days of ordering, stored on ice. Minced muscle was homogenized in 10 volumes of ice-cold “standard” buffer (50 mM Tris, pH 7.4, 0.1 M KOAc, 5 mM KCl, 2 mM dithiothreitol (DTT), 0.2 mM phenylmethylsulfonyl fluoride (PMSF), 10 μM leupeptin, 5 μM pepstatin, and 0.5 mM sodium azide) containing 5 mM ethylenediaminetetraacetic acid (EDTA) and 0.5% Triton X-100 using an Omni-Macro homogenizer. Myofibrils were recovered by low speed centrifugation (3000 rpm for 10 minutes) and washed 2 times in the Triton X-100 containing buffer to ensure removal of cellular membrane. Following the Triton washes, myofibrils were washed 3 times in “standard” buffer containing 2 mM magnesium acetate. A final wash in assay buffer (12 mM piperazine-1,4-bis(2-ethanesulfonic acid) (PIPES), pH 6.8, 60 mM KCl, 1 mM DTT) was performed and brought to 10% sucrose for flash freezing in liquid nitrogen and storage at −80° C.
Activation of Fast Skeletal Myofibrils: Fast fiber activators were identified by Measuring the enzymatic activity of muscle myofibril preparations using the proprietary PUMA (trademark) (see, e.g., U.S. Pat. Nos. 6,410,254, 6,743,599, 7,202,051, and 7,378,254) assay system. Myofibril preparations consisted of rabbit skeletal muscle (approximately 90% fast fibers) that had been mechanically homogenized and washed with a detergent (Triton X-100) to remove cellular membranes. This preparation retained all of the sarcomeric components in a native conformation and the enzymatic activity was still regulated by calcium. Compounds were tested using a myofibril suspension and a level of calcium sufficient to increase enzymatic activity of the myofibrils to 25% of their maximal rate (termed pCa25). Enzymatic activity was tracked via a pyruvate kinase and lactate dehydrogenase-coupled enzyme system. This assay regenerates myosin-produced ADP into ATP by oxidizing NADH, producing an absorbance change at 340 nm. The buffering system was 12 mM PIPES, 2 mM MgCl2, 1 mM DTT at pH 6.8 (PM12 buffer).

Another assay relates to rat model of post-SCI. The assay is described as follows: Basso, Beattie, and Bresnahan (BBB) score of post-spinal cord injury (SCI). Type of assay: in vivo, SD rats. The following applies: post-SCI rats; day 6-7, 13-14, 20-21 after SCI; FIG. 8. As to the method:
Preparation of the rat model of post-SCI: The rat model was prepared based on the method of Scheff et. al. (J Neurotrauma. 2003 February; 20(2):179-93.) which uses Infinite Horizon impactor (IH-0400; Precision Systems and Instrumentation). Female SD rats (10 week old) were anesthetized with a mixture of 0.3 mg/kg medetomidine, 4 mg/kg midazoram, and 5 mg/kg butorphanol (s.c.). The dorsal region of the rats was incised and the thoracic spine from T8 to T12 was exposed. Subsequently, laminectomy was performed on T9 and T10. On the stage of IH-0400, the exposed spinal column of the rats was stabilized by clamping with two forceps attached to the joints of IH-0400. Each of the joint and the forceps was tightly locked. Injury of T9 and T10 was induced with a rod impact of 210 kdyn. After dorsal closure, the rats were housed one per cage under the postoperative care which includes the injections of 5 mL saline s.c. and 50 mg/kg Cefamezin s.c twice a day for a week after the SCI, and includes the manual expression of the bladder of the rats twice a day using Crede maneuver until the function of the bladder recovers. […] The effect of Example Compound 52 or vehicle was analyzed using unpaired t test (a probability value of less than 0.05 was considered as a significant difference). Data were expressed as the mean±SEM.

Structures are written as SMILES. pEC50: −log10 of the molar value.

One may read the pEC50 as the EC50 on a negative log10 scale, so that one unit is a factor of ten. For the compound `CCC1(CC)C(=O)NC2(COC2)c2ccc(OCC(F)(F)F)nc21` [compound 11], the pEC50 in assay [1] (Rattus norvegicus, iv, 1 h) is 4.77.

Regarding `CCC1(CC)C(=O)NC2(COC2)c2cccnc21` [compound 12], in assay [1] (Rattus norvegicus, iv, 1 h), the pEC50 was 4.47.

On to `CCC1(CC)C(=O)NC2(COC2)c2ccc(C(F)F)nc21` [compound 13], for which, in assay [1] (Rattus norvegicus, iv, 1 h), the negative logarithm of the EC50 (pEC50) is 4.71.

On to `CCC1(CCO)C(=O)NC2(COC2)c2ccc(OC(F)F)nc21` (centres unmarked) [compound 15], for which the pEC50 in assay [1] (Rattus norvegicus, iv, 1 h) is 4.79.

Regarding `CCC1(CC)C(=O)NC2(COC2)c2ccc(C#N)nc21` [compound 16], the pEC50 in assay [1] (Rattus norvegicus, iv, 1 h) was 4.89.

For the compound `CC1(C)C(=O)NC2(COC2)c2ccc(OC(F)F)nc21` [compound 18], in assay [1] (Rattus norvegicus, iv, 1 h), the pEC50 is 4.80.

`CC1(CCO)C(=O)NC2(COC2)c2ccc(OC(F)F)nc21` (centres unmarked) [compound 19]: the pEC50 in assay [1] (Rattus norvegicus, iv, 1 h) was 4.46.

`CC1(C)C(=O)NC2(COC2)c2ccc(C#N)cc21` [compound 20]: the pEC50 in assay [1] (Rattus norvegicus, iv, 1 h) was 4.52.

For `CC1(CCO)C(=O)NC2(COC2)c2ccc(Cl)cc21` (centres unmarked) [compound 35, 6-chloro-4-(2-hydroxyethyl)-4-methyl-2H-spiro[isoquinoline-1,3′-oxetan]-3(4H)-one], the pEC50 in assay [1] was 4.64. Further, the AC1.4 in assay [2] turned out to be 0.565 µM.

Regarding `CCC1(CC)C(=O)NC(C)(C)c2ccc(Br)cc21` [compound 49], the negative-log EC50 (pEC50) in assay [1] (Rattus norvegicus, iv, 1 h) is 5.09. Besides, the AC1.4 in assay [2] was less than 0.077 µM.

As for `CC1(C)C(=O)NC2(COC2)c2ccc(Cl)cc21` [compound 52, 6-chloro-4,4-dimethyl-2H-spiro[isoquinoline-1,3′-oxetan]-3(4H)-one], the BBB score entry with rat model of post-SCI is reported as “increased BBB score”. The pEC50 in assay [1] (Rattus norvegicus, iv, 1 h) was 4.59. Besides, the AC1.4 in assay [2] is 0.326 µM.

For the compound `CCC1(CC)C(=O)NC2(COC2)c2ccc(C#N)cc21` [compound 55, 4,4-diethyl-3-oxo-3,4-dihydro-2H-spiro[isoquinoline-1,3′-oxetane]-6-carbonitrile], the pEC50 in assay [1] (Rattus norvegicus, iv, 1 h) is 5.12. For the same compound, the AC1.4 in assay [2] is 0.141 µM.

As to `CC1(CCO)C(=O)NC2(COC2)c2ccc(C#N)cc21` (centres unmarked) [compound 56], in assay [1] (Rattus norvegicus, iv, 1 h), the pEC50 was 4.52. Also, the AC1.4 in assay [2] stood at 2.067 µM.

For `CCC1(CC)C(=O)NC(C)(C)c2ncc(C#N)cc21` [compound 57], the negative logarithm of the EC50 (pEC50) in assay [1] (Rattus norvegicus, iv, 1 h) is 4.55. Further, in assay [2], the AC1.4 is 0.976 µM.

On to `CC1(C)NC(=O)C(C)(C)c2cc(C#N)ccc21` [compound 61], for which, in assay [1] (Rattus norvegicus, iv, 1 h), the negative logarithm of the EC50 (pEC50) was 4.99. Moreover, in assay [2], the AC1.4 was found to be 0.537 µM.

On to `CCC1(CC)C(=O)NC(C)(C)c2ccc(C#N)nc21` [compound 64], for which, in assay [1] (Rattus norvegicus, iv, 1 h), the pEC50 is 5.00. For the same compound, the AC1.4 in assay [2] is 0.390 µM.

Take `CCC1(CC)C(=O)NC(C)(C)c2ncc(Cl)cc21` [compound 72]: in assay [1] (Rattus norvegicus, iv, 1 h), the negative-log EC50 (pEC50) was 4.81. The AC1.4 in assay [2] was determined as 0.420 µM.

For the compound `CC1(C)NC(=O)C(C)(C)c2cc(Cl)cnc21` [compound 73], the negative-log EC50 (pEC50) in assay [1] (Rattus norvegicus, iv, 1 h) is 4.30. The AC1.4 in assay [2] was determined as 1.571 µM.

On to `CCC1(CC)C(=O)NC2(COC2)c2ncc(Cl)cc21` [compound 74], for which the negative-log EC50 (pEC50) in assay [1] (Rattus norvegicus, iv, 1 h) is 4.81. Moreover, the AC1.4 in assay [2] came to 0.902 µM.

As for `CCC1(CCO)C(=O)NC2(COC2)c2ccc(C#N)nc21` (centres unmarked) [compound 101], the pEC50 in assay [1] (Rattus norvegicus, iv, 1 h) is 4.62. Further, in assay [2], the AC1.4 is 2.228 µM.

For the compound `CCC1(CCO)C(=O)NC2(COC2)c2ccc(C(F)F)nc21` (centres unmarked) [compound 103], the pEC50 in assay [1] (Rattus norvegicus, iv, 1 h) is 4.64. For the same compound, in assay [2], the AC1.4 was 1.247 µM.

As to `CCC1(CCO)C(=O)NC2(COC2)c2ccc(C(F)F)nc21` (centres unmarked) [compound 104], in assay [1], the negative-log EC50 (pEC50) is 4.52. Moreover, the AC1.4 in assay [2] stood at 5.017 µM.

For the compound `CCC1(CC)C(=O)NC2(COC2)c2ncc(C#N)nc21` [compound 106], the pEC50 in assay [1] (Rattus norvegicus, iv, 1 h) is 4.82. In assay [2], the AC1.4 is 0.494 µM.

With `CCC1(C)C(=O)NC(C)(C)c2ccc(C#N)nc21` (centres unmarked) [compound 108], the pEC50 in assay [1] (Rattus norvegicus, iv, 1 h) was 4.64. In addition, the AC1.4 in assay [2] was determined as 0.450 µM.

Take `CC1(C)NC(=O)C(C)(Cc2cc[nH]n2)c2nc(C#N)ccc21` (centres unmarked) [compound 109]: in assay [1] (Rattus norvegicus, iv, 1 h), the negative logarithm of the EC50 (pEC50) was 4.40. For the same compound, the AC1.4 in assay [2] is 1.919 µM.

As for `CC1(CC(F)F)C(=O)NC2(COC2)c2ccc(OC(F)F)nc21` (centres unmarked) [compound 113], the pEC50 in assay [1] (Rattus norvegicus, iv, 1 h) was 5.10. The AC1.4 in assay [2] was determined as 0.271 µM.

Take `CC1(C)C(=O)NC2(COC2)c2ccc(F)cc21` [compound 157]: the AC1.4 in assay [2] is 2.566 µM.

As for `CC1(C)NC(=O)C(C)(CCO)c2cc(Cl)cnc21` (centres unmarked) [compound 159], the AC1.4 in assay [2] is 11.374 µM.

As to `CCC1(CC)C(=O)NC2(COC2)c2ncc(C#N)cc21` [compound 161], the AC1.4 in assay [2] came to 1.987 µM.

Turning to `CCC1(CCO)C(=O)NC2(COC2)c2ccc(C#N)cc21` (centres unmarked) [compound 165], the AC1.4 in assay [2] worked out at 1.202 µM.

Regarding `CC1(C)C(=O)NC2(COC2)c2ccc(C(F)F)nc21` [compound 169], the AC1.4 in assay [2] came out at 1.730 µM.
